Assay results taken from US10933141B2, “Formulations with reduced degradation of polysorbate” (Genentech, Inc., priority 2015, dated 2021).

Columns and labels:
PPL enzyme = molecular target: T1, PPL enzyme (Sus scrofa, UniProt P00591); assay: PPL degradation of PS20 in mAb, BsAb and sFAb samples, PS20 by RP-ELSD; type: biochemical, porcine; conditions: 5% and 15% HPβCD, BsAb, sFAb 20 mg/mL and control, 0.02% PS20, 20 mM histidine acetate pH 5.5, 15 μg/mL PPL 4.5 hours
T1 construct: purchased Sigma Aldrich Inc. (St. Louis, Mo.)
T1 sequence (P00591 1-450): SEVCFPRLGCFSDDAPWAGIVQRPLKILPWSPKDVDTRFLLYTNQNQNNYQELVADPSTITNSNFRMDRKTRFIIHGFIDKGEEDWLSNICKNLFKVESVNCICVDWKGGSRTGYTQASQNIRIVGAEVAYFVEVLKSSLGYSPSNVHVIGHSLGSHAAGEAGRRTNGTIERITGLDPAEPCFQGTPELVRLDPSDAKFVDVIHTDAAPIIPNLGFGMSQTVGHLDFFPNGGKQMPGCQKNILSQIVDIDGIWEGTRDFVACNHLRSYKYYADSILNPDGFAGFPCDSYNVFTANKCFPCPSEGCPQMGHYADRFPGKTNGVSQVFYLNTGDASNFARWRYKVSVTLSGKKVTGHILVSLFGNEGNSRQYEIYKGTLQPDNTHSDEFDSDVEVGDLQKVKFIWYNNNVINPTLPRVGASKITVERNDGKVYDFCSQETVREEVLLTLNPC
Procedure: (§1) Polysorbate concentration was determined using reverse phase ultra-performance liquid chromatography using evaporative light scattering detection (RP-ELSD). Samples were analyzed using an Agilent 1100 series high performance liquid chromatography system (HPLC) fitted with a Waters Oasis MAX cartridge column (20×2.1 mm, 30 μm particle size). The HPLC system was set up with a switching valve directing column flow-through to either waste or a Varian 380-LC evaporative light scattering detector set to 100° C. The mobile phases consisted of 2% formic acid in water (Pump A) and 2% formic acid in isopropanol (Pump B). […] In order to quantitate the PS20 concentration, a standard curve was generated by injecting 20 μL of solutions containing between 0% w/v and 0.4% w/v PS20. For excipients which affected the migration time of PS20 through the column, PS20 standard curve solutions containing the relevant excipient were included in the analysis to facilitate accurate quantitation.
The impact of various protein molecule classes (e.g., monoclonal antibody (mAb), single-Fab antibody (sFAb), and bispecific antibody(BsAb)) was assessed on the ability of cyclodextrins to decrease enzymatic PS20 degradation. […] Each sample was analyzed for PS20 concentration using high performance liquid chromatography with an inline evaporative light scattering detector. […]

[1] = Oxidative PS20 degradation with AAPH, PS20 by RP-ELSD; type: physicochemical; conditions: 15% (w/v) excipient; 5 mM AAPH at 40° C. for 24 hours; n=3
Procedure: as §1
The ability of cyclodextrins to inhibit oxidative PS20 degradation was evaluated using 2,2′-Azobisisobutyramidinium (AAPH), which has been shown previously to degrade PS20 (Borisov et al., J. Pharm. Sci. 104:1005-1018 (2015)). […] Polysorbate 20 degradation was determined by RP-ELSD for samples oxidized with 5 mM AAPH at 40° C. for 24 hours containing no excipient (control), 15% (w/v) sucrose, and 15% (w/v) HP-β-CD.

[2] = tested on: Rabbit Liver Esterase (RLE); assay: Enzymatic degradation of PS20 by RLE, PS20 by RP-ELSD; type: biochemical; conditions: 15% w/v HP-β-CD; 0.02% PS20, pH 5.5; 15 μg/mL RLE, 5 hours, room temperature
Procedure: as §1
The effect of 15% HP-β-CD on the enzymatic degradation of PS20 was measured. […]
PPL digestion was stopped by heat inactivation in an 85° C. water bath for 30 minutes. LPL and RLE digestion could not be stopped by heat inactivation, so the samples were analyzed immediately for PS20 content. […]

CALB, RLE, and LPL = assay: PS20 loss and subvisible particles after digestion, summary across CALB, LPL and RLE; type: biochemical; conditions: 15% (w/v) HP-β-CD vs 0%; ≥2, ≥5, ≥10, ≥25 micron; HIAC
Procedure: Subvisible particles were measured using a HIAC 9703 particle counter equipped with an HRDL-150 detector and a 1 mL syringe. Performance of the instrument was verified with NIST-traceable 2 μm Polystyrene bead standards at 3000 counts/mL before each measurement session. The HIAC instrument was configured to a 10 mL/min flow rate, 0.1 mL tare volume, and 0.4 mL sample volume. The samples were analyzed using 4 runs of 0.4 mL sips, with the first run of each sample was discarded to prevent measurement error due to sample carryover. Results were reported as the average values for 1.4, 2, 5, 10, 15, and 25, 50 μm analysis filter sizes.
as §1, with “size).” for “size). The HPLC system was set up with a switching valve directing column flow-through to either waste or a Varian 380-LC evaporative light scattering detector set to 100° C. The mobile phases consisted of 2% formic acid in water (Pump A) and 2% formic acid in isopropanol (Pump B).”, “quantitation. […]” for “quantitation.”

Compound | mitigation of catalytic PS20 degradation across molecular formats (in words) (PPL enzyme) | decrease in relative percent PS20 [1] [%] | Polysorbate 20 (Relative %) [2] [%] | subvisible particulates (SVP/mL) after enzymatic degradation (CALB, RLE, and LPL)
2-hydroxypropyl-β-cyclodextrin [HP-β-CD] | equally effective at mitigating catalytic PS20 degradation | 3.6 | 62.7 | fewer SVP/mL
OC[C@H]1O[C@@](CO)(O[C@H]2O[C@H](CO)[C@@H](O)[C@H](O)[C@H]2O)[C@@H](O)[C@@H]1O [sucrose, reference compound] |  | 9.8 |  | 
